The values below come from patent US8648068B2, “Heterocycloalkyl-containing thienopyrimidines for pharmaceutical compositions” (Boehringer Ingelheim International GmbH, priority 2010, dated 2014).

The assay deals with T1, human Mnk2a (Homo sapiens, UniProt Q9HBH9).
T1 construct: made in house; host or cells: E. coli BL21 (vector pGEX-4T1)
Nature of the assay: Mnk2a in vitro kinase assay (indirect fluorescence polarization). Format: biochemical. As to conditions: GST-Mnk2a pre-activated with ERK2, 20 μM ATP, 30 μM substrate peptide; read-out: MNK2 IC50. On the procedure:
Inhibitory potency of compounds against Mnk1, Mnk2a and other kinases was assessed with assays based on a format known to those skilled in the art as the indirect (competitive) fluorescence polarization. The assay detection system comprises a small fluorophore-labeled phospho-peptide (termed ligand) bound to a phospho-specific antibody. The product generated by the kinase reaction competes with the ligand for antibody binding. Based on the larger molecular volume of the bound ligand, which results in a lower rotation rate in solution, its emitted light has a higher degree of polarization than the one from the free ligand.
As a source of enzyme, human Mnk1 and human Mnk2a were expressed as GST fusion proteins in E. coli, purified to >80% homogeneity by glutathione affinity chromatography and activated in vitro with pre-activated ERK2. In brief, the open reading frames of human Mnk1 and Mnk2a were amplified from cDNA using the forward/reverse primer pairs
(utilized restriction sites underlined), respectively, and cloned into the BamHI and SalI sites of the vector pGEX-4T1 (Amersham, Sweden, cat. no. 27-4580-01). These constructs allow prokaryotic expression of Mnk1 or Mnk2a as fusion protein with a N-terminal glutathione S-transferase (GST) tag, referred to as GST-Mnk1 or GST-Mnk2a. The following expression and purification procedure was identical for GST-Mnk1 and GST-Mnk2a, referring in general to GST-Mnk, when not distinguishing between the two isoforms. Expression of GST-Mnk was in E. coli BL21 (Merck Biosciences, Germany, cat. no. 69449). Cells were grown in LB-Bouillon (Merck, Germany, cat. no. 1.10285) supplemented with 100 μg/ml ampicillin (Sigma, Germany, cat. no. A9518) at 37° C. When the culture had reached a density corresponding to an A600 of 0.8, an equal volume of ice cold LB/ampicillin was added, the culture transferred to 25° C. and induced for 4 h with 1 mM isopropyl thiogalactoside (IPTG, Roth, Germany, cat. no. 2316.4). Cells harvested by centrifugation were resuspended in 10 ml lysis buffer (50 mM tris(hydroxymethyl)aminomethane hydrochloride (Tris/HCl, Sigma, Germany, cat. no. T5941) pH 7.5, 300 mM sodium chloride (NaCl, Sigma, Germany, cat. no. S7653), 5% (w/v) glycerol (Sigma, Germany, cat. no. G5516), 3 mM DTT dithiotreitol (DTT, Sigma, Germany, cat. no. D9779)) per gram wet weight cell pellet. Lysates were prepared by disruption of cells with a sonifier and subsequent clearing by centrifugation at 38000 g for 45 min at 4° C.
The lysate was applied to a GSTPrep FF 16/10 column (Amersham, Sweden, cat. no. 17-5234-01) equilibrated with lysis buffer. Removal of unbound material was with 3 column volumes (CV) lysis buffer. Elution was with 2 CV of elution buffer (50 mM Tris/HCl pH 7.5, 300 mM NaCl, 5% (w/v) glycerol, 20 mM glutathione (Sigma, Germany, cat. no. G4251)). Peak fractions were pooled and the protein transferred into storage buffer (50 mM Tris/HCl pH 7.5, 200 mM NaCl, 0.1 mM ethylene glycol-bis(2-aminoethylether)-N,N,N′,N′-tetraacetic acid (EGTA, Aldrich, Germany, cat. no. 23, 453-2), 1 mM DTT, 10% (w/v) glycerol, 0.5 M sucrose (Sigma, Germany, cat. no. SO389) by gel filtration on a PD10 desalting column (Amersham, Sweden, cat. no. 17-0851-01). Aliquots were shock frozen in liquid nitrogen and stored at −80° C.
Activation of Mnk1 and Mnk2a was at a concentration of 2.5 μM of either purified GST-Mnk1 or GST-Mnk2a by incubation with 150 nM pre-activated NHis-ERK2 (see ERK2 assay for preparation) and 50 μM adenosine triphosphate (ATP, Sigma, cat. no. A2699) in a buffer comprising 20 mM N-(2-hydroxyethyl)piperazine-N′-(2-ethanesulfonic acid) (HEPES, Fluka, Germany, cat. no 54459)/potassium hydroxide (KOH, Roth, Germany, cat. no 6751.1) pH 7.4, 10 mM magnesium chloride (MgCl2, Sigma, Germany, cat. no. M2670), 0.25 mM DTT, 0.05% (w/v) polyoxyethylene 20 stearylether (Brij 78, Sigma, Germany, cat. no. P4019) (HMDB buffer) for 45 min at 30° C. […]
For orientation: In fluorescence polarisation assays a small probe gives low polarisation when free and higher when bound to something large.

Structures can show the parent of a compound that is named as a salt.

T1 sequence (Q9HBH9 whole entry): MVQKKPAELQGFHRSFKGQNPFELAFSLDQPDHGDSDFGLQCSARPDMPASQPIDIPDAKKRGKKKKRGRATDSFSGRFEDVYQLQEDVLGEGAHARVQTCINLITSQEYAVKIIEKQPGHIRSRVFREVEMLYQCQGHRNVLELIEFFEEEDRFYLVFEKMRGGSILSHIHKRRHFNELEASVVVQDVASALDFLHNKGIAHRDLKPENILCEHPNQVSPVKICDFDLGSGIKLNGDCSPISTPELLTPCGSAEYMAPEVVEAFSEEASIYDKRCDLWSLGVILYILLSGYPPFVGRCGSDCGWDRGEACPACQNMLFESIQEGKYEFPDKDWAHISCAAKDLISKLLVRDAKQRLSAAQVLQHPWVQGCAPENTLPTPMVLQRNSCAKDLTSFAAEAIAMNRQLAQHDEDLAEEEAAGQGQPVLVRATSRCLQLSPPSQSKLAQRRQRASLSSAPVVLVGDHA

In the case of `Cc1c(C(=O)NC(C)(C)CO)sc2ncnc(Nc3ccc(F)cc3OC3CCOCC3)c12` [Example 226], the IC50 (in general, the midpoint of a concentration-inhibition curve) stood at 55 nM.

Regarding `Cc1c(C(=O)NCC2CCCN(C)C2)sc2ncnc(Nc3ccc(F)cc3OC3CCOCC3)c12` (centres unmarked) [Example 123], the IC50 was found to be 38 nM.

`Cc1c(C(=O)NCc2ccc3sccc3c2)sc2ncnc(Nc3ccc(F)cc3OC3CCCNC3)c12` (centres unmarked) [Example 61]: the half-inhibitory concentration (IC50) was 38 nM.

Consider `Cc1c(C(=O)NC2CCN(C)CC2)sc2ncnc(Nc3ccc(F)cc3O[C@H]3CCOC3)c12` [Example 271, 4-{4-Fluoro-2-[(S)-(tetrahydro-furan-3-yl)oxy]-phenylamino}-5-methyl-thieno[2,3-d]pyrimidine-6-carboxylic acid (1-methyl-piperidin-4-yl)-amide], for which the IC50 was 40 nM.

As to `Cc1c(C(=O)NCc2cccc3ccccc23)sc2ncnc(Nc3ccc(F)cc3OC3CCCNC3)c12` (centres unmarked) [Example 60], the IC50 was determined as 64 nM.

Regarding `Cc1c(C(=O)NCC(O)CN(C)C)sc2ncnc(Nc3ccc(F)cc3OC3CCOCC3)c12` (centres unmarked) [Example 256, 4-[4-Fluoro-2-(tetrahydro-pyran-4-yloxy)-phenylamino]-5-methyl-thieno[2,3-d]pyrimidine-6-carboxylic acid (3-dimethylamino-2-hydroxy-propyl)-amide-hydrochloride], the IC50 amounted to 37 nM.

Consider `Cc1c(C(=O)NCCn2cc[nH]c2=O)sc2ncnc(Nc3ccc(F)cc3OC3CCOCC3)c12` [Example 179], for which the IC50 was 166 nM.

On to `Cc1c(C(N)=O)sc2ncnc(Nc3ccc(F)cc3O[C@@H]3CCCN(Cc4cccn4C)C3)c12` [Example 81], for which the concentration for half-maximal inhibition (IC50) is 6 nM.

Consider `Cc1c(C(N)=O)sc2ncnc(Nc3ccc(F)cc3O[C@@H]3CCCN(Cc4nccs4)C3)c12` [Example 78], for which the IC50 was 28 nM.

Turning to `Cc1c(C(=O)NCc2ccc(OC(C)C)cc2)sc2ncnc(Nc3ccc(F)cc3OC3CCCNC3)c12` (centres unmarked) [Example 63], the IC50 was determined as 43 nM.

With `Cc1c(C(=O)N[C@H]2C[C@H](N)C2)sc2ncnc(Nc3ccc(F)cc3OC3CCOCC3)c12` [Example 143], the half-inhibitory concentration (IC50) was 41 nM.

Consider `Cc1c(C(=O)NCc2ccccc2)sc2ncnc(Nc3ccc(F)cc3OC3CCCNC3)c12` (centres unmarked) [Example 27], for which the half-maximal inhibitory concentration (IC50) was 48 nM.

Turning to `Cc1c(C(N)=O)sc2ncnc(Nc3ccc(F)cc3O[C@H]3CCCN(CCC(F)(F)F)C3)c12` [Example 9], the half-maximal inhibitory concentration (IC50) was 180 nM.

On to `Cc1c(C(N)=O)sc2ncnc(Nc3ccc(F)cc3O[C@@H]3CCCN(CCO)C3)c12` [Example 80], for which the 50% inhibitory concentration (IC50) was 20 nM.

For the molecule `COCCCNC(=O)c1sc2ncnc(Nc3ccc(F)cc3OC3CCOCC3)c2c1C` [Example 215], the IC50 was 30 nM.

Take `Cc1c(C(=O)NC2CC2)sc2ncnc(Nc3ccc(F)cc3O[C@H]3CCOC3)c12` [Example 112]: the half-maximal inhibitory concentration (IC50) came to 21 nM.

Turning to `Cc1c(C(=O)NCCNS(C)(=O)=O)sc2ncnc(Nc3ccc(F)cc3OC3CCOCC3)c12` [Example 189], the half-maximal inhibitory concentration (IC50) was determined as 25 nM.

`Cc1c(C(=O)NCc2ccc(O)cc2)sc2ncnc(Nc3ccc(F)cc3OC3CCCNC3)c12` (centres unmarked) [Example 34]: the half-inhibitory concentration (IC50) amounted to 35 nM.

With `Cc1c(C(=O)NCCCN(C)C)sc2ncnc(Nc3ccc(F)cc3O[C@@H]3CCCN(S(C)(=O)=O)C3)c12` [Example 85], the IC50 came to 7 nM.

For `Cc1c(C(=O)NCCCN(C)C)sc2ncnc(Nc3cccnc3O[C@H]3CCOC3)c12` [Example 270, 5-Methyl-4-{2-[(S)-(tetrahydro-furan-3-yl)oxy]-pyridin-3-ylamino}-thieno[2,3-d]pyrimidine-6-carboxylic acid (3-dimethylamino-propyl)-amide], the IC50 came to 298 nM.

On to `CC(=O)N1CC[C@@H](Oc2cc(F)ccc2Nc2ncnc3sc(C(N)=O)c(C)c23)C1` [Example 98, 4-[2-((R)-1-Acetyl-pyrrolidin-3-yloxy)-4-fluoro-phenylamino]-5-methyl-thieno[2,3-d]pyrimidine-6-carboxylic acid amide], for which the concentration for half-maximal inhibition (IC50) is 94 nM.

`Cc1c(C(N)=O)sc2ncnc(Nc3ccc(F)cc3O[C@@H]3CCOC3)c12` [Example 104]: the IC50 was 12 nM.

In the case of `Cc1c(C(=O)NCCO)sc2ncnc(Nc3ccc(F)cc3O[C@H]3CCCNC3)c12` [Example 15], the IC50 came out at 31 nM.

Take `Cc1c(C(=O)NCCn2cccn2)sc2ncnc(Nc3ccc(F)cc3OC3CCOCC3)c12` [Example 183]: the IC50 was found to be 51 nM.

For `Cc1c(C(=O)NCC(C)(C)CN(C)C)sc2ncnc(Nc3ccc(F)cc3OC3CCOCC3)c12` [Example 154], the IC50 came to 215 nM.

Turning to `Cc1c(C(=O)NCCCCCN(C)C)sc2ncnc(Nc3ccc(F)cc3OC3CCOCC3)c12` [Example 168], the half-maximal inhibitory concentration (IC50) amounted to 23 nM.

On to `Cc1c(C(=O)NCCc2cn[nH]c2)sc2ncnc(Nc3ccc(F)cc3OC3CCCNC3)c12` (centres unmarked) [Example 28], for which the IC50 stood at 65 nM.

For `Cc1c(C(=O)NCCc2cn[nH]c2O)sc2ncnc(Nc3ccc(F)cc3OC3CCOCC3)c12` [Example 195], the IC50 came out at 67 nM.

As to `Cc1c(C(=O)NCc2cccc(F)c2)sc2ncnc(Nc3ccc(F)cc3OC3CCCNC3)c12` (centres unmarked) [Example 35], the IC50 is 53 nM.

With `Cc1c(C(=O)NC#N)sc2ncnc(Nc3ccc(F)cc3O[C@@H]3CCOC3)c12` [Example 100, (R)—N-cyano-4-(4-fluoro-2-(tetrahydrofuran-3-yloxy)phenylamino)-5-methylthieno[2,3-d]pyrimidine-6-carboxamide], the 50% inhibitory concentration (IC50) worked out at 5 nM.

As to `Cc1c(C(=O)NC2CCN(C)C2)sc2ncnc(Nc3ccc(F)cc3OC3CCOCC3)c12` (centres unmarked) [Example 177], the IC50 was 67 nM.

For `CNCCNC(=O)c1sc2ncnc(Nc3ccc(F)cc3OC3CCOCC3)c2c1C` [Example 146], the IC50 amounted to 70 nM.

Take `CCC(CO)NC(=O)c1sc2ncnc(Nc3ccc(F)cc3OC3CCOCC3)c2c1C` (centres unmarked) [Example 224]: the IC50 turned out to be 63 nM.

With `CONC(=O)c1sc2ncnc(Nc3ccc(F)cc3O[C@@H]3CCOC3)c2c1C` [Example 102, 4-{4-Fluoro-2-[(R)-(tetrahydro-furan-3-yl)oxy]-phenylamino}-5-methyl-thieno[2,3-d]pyrimidine-6-carboxylic acid methoxy-amide], the IC50 came to 32 nM.

As for `Cc1c(C(=O)NCc2ncco2)sc2ncnc(Nc3ccc(F)cc3OC3CCCNC3)c12` (centres unmarked) [Example 23], the IC50 was 48 nM.

As to `Cc1c(C(N)=O)sc2ncnc(Nc3ccc(F)cc3OC3CCN(C(=O)CN(C)C)C3)c12` (centres unmarked) [Example 95, 4-{2-[1-(2-Dimethylamino-acetyl)-pyrrolidin-3-yloxy]-4-fluoro-phenylamino}-5-methyl-thieno[2,3-d]pyrimidine-6-carboxylic acid amide], the half-inhibitory concentration (IC50) came out at 460 nM.

Take `Cc1c(C(=O)NCCC(N)=O)sc2ncnc(Nc3ccc(F)cc3OC3CCOCC3)c12` [Example 165]: the concentration for half-maximal inhibition (IC50) turned out to be 39 nM.

Consider `Cc1c(C(=O)NCCCO)sc2ncnc(Nc3ccc(F)cc3OC3CCOCC3)c12` [Example 152], for which the IC50 came out at 40 nM.

Regarding `CNC(=O)CNC(=O)c1sc2ncnc(Nc3ccc(F)cc3OC3CCOCC3)c2c1C` [Example 175], the concentration for half-maximal inhibition (IC50) was 50 nM.

Turning to `CC(=O)NCCNC(=O)c1sc2ncnc(Nc3ccc(F)cc3OC3CCOCC3)c2c1C` [Example 230], the IC50 was determined as 49 nM.

As for `CCC(C)CNC(=O)c1sc2ncnc(Nc3ccc(F)cc3OC3CCCNC3)c2c1C` (centres unmarked) [Example 20], the IC50 was 67 nM.
